# Data published in paper PMC3536784, “Structural Characterization of Pandoraea pnomenusa B-356 Biphenyl Dioxygenase Reveals Features of Potent Polychlorinated Biphenyl-Degrading Enzymes” (PLoS ONE, 2013).
# Columns and labels:
# [1] = target: T1, BPDOB356 (biphenyl dioxygenase, oxygenase component BphAE) (Comamonas testosteroni, UniProt Q46372, M231T); test: O2 consumption, Clark-type oxygen electrode; conditions: read-out: 2,2′-Dichlorobiphenyl / Km /; apparent; air-saturated 50 mM MES pH 6.0; NADH 123 µM; BphG B356 and BphF LB400 as electron transfer partners; Fe(II) added; partly uncoupled
# T1 construct: gene bphA
# [2] = target: T2, BPDOB356 (biphenyl dioxygenase, oxygenase component BphAE) (Comamonas testosteroni, UniProt Q46372); test: O2 consumption, Clark-type oxygen electrode; type: biochemical; conditions: apparent; air-saturated 50 mM MES pH 6.0; NADH 123 µM; BphG B356 and BphF LB400 as electron transfer partners; Fe(II) added; partly uncoupled; read-out: 2,2′-Dichlorobiphenyl / Km /
# T2 construct: gene bphA; heterologously produced, purified anaerobically; heterohexamer (alpha-beta)3; Rieske [2Fe-2S] and mononuclear Fe(II); 18 N-terminal alpha residues disordered; with Biphenyl dioxygenase subunit beta
# From the text: O2 consumption, Clark-type oxygen electrode on BPDOB356 (biphenyl dioxygenase, oxygenase component BphAE)
# [3] = target: T3, BPDOB356 (biphenyl dioxygenase, oxygenase component BphAE) (Comamonas testosteroni, UniProt Q46372, M231A); test: O2 consumption, Clark-type oxygen electrode; conditions: read-out: 2,2′-Dichlorobiphenyl / Km /; apparent; air-saturated 50 mM MES pH 6.0; NADH 123 µM; BphG B356 and BphF LB400 as electron transfer partners; Fe(II) added; partly uncoupled
# T3 construct: gene bphA
# [4] = target: T2, BPDOB356 (biphenyl dioxygenase, oxygenase component BphAE); test: X-ray crystal structure of complex, […] Å; type: binding; conditions: biphenyl powder soaked into crystals 24 h, anaerobic; MES pH 6.0; alpha-subunit active site near Fe(II)
# T2 sequence (Q46372 whole entry): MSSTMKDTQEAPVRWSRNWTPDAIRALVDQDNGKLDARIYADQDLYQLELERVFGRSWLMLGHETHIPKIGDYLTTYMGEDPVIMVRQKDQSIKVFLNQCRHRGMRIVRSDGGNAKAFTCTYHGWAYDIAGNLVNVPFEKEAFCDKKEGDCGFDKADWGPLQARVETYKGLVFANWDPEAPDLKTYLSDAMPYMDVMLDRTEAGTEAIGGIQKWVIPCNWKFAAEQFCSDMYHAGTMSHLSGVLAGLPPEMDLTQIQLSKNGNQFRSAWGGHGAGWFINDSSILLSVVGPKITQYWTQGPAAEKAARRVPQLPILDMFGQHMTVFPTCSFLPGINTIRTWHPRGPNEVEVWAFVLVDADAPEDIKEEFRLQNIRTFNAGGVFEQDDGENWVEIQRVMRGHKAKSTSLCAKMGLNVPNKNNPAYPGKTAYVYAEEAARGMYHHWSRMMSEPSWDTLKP
# T2 sequence (Q46373 whole entry partner): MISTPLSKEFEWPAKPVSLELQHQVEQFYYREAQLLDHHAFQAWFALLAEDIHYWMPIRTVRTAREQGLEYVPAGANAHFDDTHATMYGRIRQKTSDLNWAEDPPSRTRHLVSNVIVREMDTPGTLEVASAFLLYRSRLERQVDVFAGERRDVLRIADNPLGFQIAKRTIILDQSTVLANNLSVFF
# T1 sequence (Q46372 whole entry M231T): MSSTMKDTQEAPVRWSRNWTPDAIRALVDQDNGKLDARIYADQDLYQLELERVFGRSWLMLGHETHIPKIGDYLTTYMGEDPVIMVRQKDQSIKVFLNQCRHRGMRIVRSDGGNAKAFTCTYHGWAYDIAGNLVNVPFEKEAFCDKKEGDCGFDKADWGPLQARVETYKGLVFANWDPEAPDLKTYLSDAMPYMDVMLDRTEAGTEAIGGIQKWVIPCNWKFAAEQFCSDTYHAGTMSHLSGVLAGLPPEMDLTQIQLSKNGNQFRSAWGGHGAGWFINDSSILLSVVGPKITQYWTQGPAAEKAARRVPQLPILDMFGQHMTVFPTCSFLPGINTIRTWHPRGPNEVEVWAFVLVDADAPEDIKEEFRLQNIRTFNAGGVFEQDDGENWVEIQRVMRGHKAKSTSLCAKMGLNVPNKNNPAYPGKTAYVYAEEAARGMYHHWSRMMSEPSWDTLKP
# T1 sequence (Q46373 whole entry partner): as the sequence (Q46373 whole entry partner) above
# T3 sequence (Q46372 whole entry M231A): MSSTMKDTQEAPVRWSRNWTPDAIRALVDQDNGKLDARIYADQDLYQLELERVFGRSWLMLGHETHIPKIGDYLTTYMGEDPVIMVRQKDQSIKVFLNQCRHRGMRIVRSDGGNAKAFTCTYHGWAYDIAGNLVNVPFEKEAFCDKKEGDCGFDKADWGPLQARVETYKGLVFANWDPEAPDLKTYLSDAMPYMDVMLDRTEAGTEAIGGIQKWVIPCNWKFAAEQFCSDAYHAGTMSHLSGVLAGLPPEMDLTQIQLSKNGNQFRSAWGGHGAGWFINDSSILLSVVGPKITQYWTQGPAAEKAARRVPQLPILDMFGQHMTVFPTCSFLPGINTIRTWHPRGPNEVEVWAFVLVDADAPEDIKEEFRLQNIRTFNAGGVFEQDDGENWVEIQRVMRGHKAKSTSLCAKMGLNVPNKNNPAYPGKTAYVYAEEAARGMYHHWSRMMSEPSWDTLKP
# T3 sequence (Q46373 whole entry partner): as the sequence (Q46373 whole entry partner) above
structure (smiles),measurement,setting,value
"Clc1ccccc1-c1ccccc1Cl [2,2′-dichlorobiphenyl]",Km,[1],6.4 µM
same,Km,[2],1.1 µM
same,Km,[3],5.7 µM
c1ccc(-c2ccccc2)cc1 [biphenyl],"X-ray crystal structure of complex, 1.6 Å",[4],3GZY (BPDOB356) and 3GZX (BPDOB356•biphenyl complex)
